Laboratory results taken from patent publication US20240180932A1, “S[…] COMPOUNDS IN THE MANAGEMENT OF AGEING AND RELATED DISORDERS” (SOCIETE DES PRODUITS NESTLE S.A., priority 2021, published 2024).

Experiments:
[1] = test system: AMPKα2 knockout C. elegans (aak-2); test: Lifespan of AMPKα2 knockout C. elegans (aak-2); type: in vivo; set-up: Mean lifespan / Maximum lifespan: unit not given here
Procedure: FIG. 3. […] 60-70 synchronized day 1 adult aak-2 animals were loaded in each Infinity chip and treated with 0.5 μM or 10 μM of Compound 1, throughout life, and with fresh doses of OP50 bacteria (20 mg/ml) at 20 C, each day. Note that the control is the no drug treated population (0.2% v/v DMSO liquid NGM). […] Each day, at the same time, death scores were determined and three independent trials were conducted, with two technical replicates per trial.
We tested the ability of Compound 1 to extend lifespan in C elegans which have the AMP-activated protein kinase (AMPK) α2 subunit isoform deletion. This mutant strain (aak-2) is commonly used in lifespan studies to look at the dependence on activation of AMPK for mediating the lifespan and other effects of various compounds.

Zebrafish larvae = test: Autophagy induction in Zebrafish larvae (LC3-ZsGreen reporter, LC3 punctae); type: in vivo; settings: 0.25, 0.5, 1 and 2.5 μM
Procedure: FIG. 7. Compound 1 increases autophagy in Zebrafish larvae. An autophagy reporter zebrafish line was generated by stable expression of the LC3 protein fused to ZsGreen under the control of a skeletal muscle specific promoter. Larvae from outcrossed transgenic zebrafish were raised at 28 C under standard laboratory conditions and have been treated at 48 h post-fertilization in 96 well plates with varying concentrations of Compound 1 at different concentrations as indicated in the figure. After 16 hours of treatment larvae were anesthetized with 0.016% tricaine and imaged with ImageXpress confocal system at 20× magnification (Molecular Devices). Z stack images were captured for each larva and maximal projection images were produced. Ammonium chloride (final concentration 100 mM) was added for an additional 4 h to block lysosomal degradation. Images were acquired again as before. In order to quantify autophagic flux, number of LC3 punctae have been calculated in presence and in absence of ammonium chloride with MetaXpress software (Molecular Devices) and normalized by zebrafish area.

wild-type C. elegans = test: Lifespan of wild-type C. elegans (microfluidic Infinity System); type: in vivo; set-up: Mean lifespan / Maximum lifespan: unit not given here
Procedure: FIG. 2. 10 μM Compound 1 extends the mean and maximum lifespan of C. elegans. 60-70 synchronized day 1 adult animals were loaded in each Infinity chip and treated with 0.5 μM or 10 μM of Compound 1, throughout life, and with fresh doses of OP50 bacteria (20 mg/ml) at 20 C, each day. Note that the control is the no drug treated population (0.2% v/v DMSO liquid NGM). […] Each day, at the same time, death scores were determined and three independent trials were conducted, with two technical replicates per trial.
To determine whether Compound 1 can extend lifespan, C. elegans were treated with 0.5 μM or 10 μM Compound 1 from day 1 of adulthood. The microfluidic Infinity System was used to assess the lifespan of Compound 1-treated and non-treated control worms. 60-70 synchronized day 1 adult animals were loaded in each Infinity chip and treated with 0.5 μM or 10 μM of Compound 1, lifelong, with daily fresh doses of 20 mg/mL of OP50 bacteria at 20 C. Control is the no-drug-treated population, maintained in 0.2% v/v DMSO liquid NGM. […] Each day, at the same time death scores were determined using the Infinity Code. Three independent trials with two technical replicates per trial were conducted.

[2] = Solubility in water-based solutions; type: physicochemical
WT C. elegans = test: Thermotolerance of C. elegans after a heat-shock of 37 C for 4 hours (survival, microfluidic Infinity System); type: in vivo; settings: 48 hrs treatment
Procedure: FIG. 1. Compound 1 improves the thermotolerance of C. elegans, after a 37 C heat-shock. Day 1 adults were treated with 4 different concentrations of Compound 1 for 48 hrs at 20 C. Control is the no-drug-treated population. All compound solutions were made in NGM with 0.2% v/v DMSO, and the bacterial food source (20 mg/mL E. coli OP50). After 48 hrs of Compound 1 treatment, animals were exposed to 37 C for 4 hours and allowed to recover for 15 mins following which death scores were determined using the microfluidic Infinity System. One-way ANOVA test was used to compare the response from different doses. Multiple comparison test was conducted for pairwise comparison to identify the dosages which provide thermotolerance benefit.
It has been reported that exposing C. elegans to high temperatures increases the molecular stress and reduces animal lifespan. […] Importantly, this has been used to screen and evaluate the effectiveness of anti-ageing compounds. We monitored the survival of C. elegans after a thermal stress to determine whether Compound 1 could improve the ageing of these animals and at what concentrations this may occur. […] To achieve this, worms were maintained at their normal temperature (20 C) and then treated for 48-hour incubation with Compound 1 starting on adult day 1, followed by 4-hour heat challenge at 37 C, followed by 15 mins recovery and then death was recorded.

C. elegans = test: Mobility of C. elegans (highly active, moderately active, inactive cohorts); type: in vivo; settings: for Effect on percentage of highly active animals: Days 5, 8, 12, 15
Procedure: FIG. 4. […] To measure locomotory health related parameters the same video recordings that were captured for live/dead scoring were analyzed. The movements of the individual animals were tracked and animals were grouped into cohorts of different activity. This was achieved by determining how much of the animal body moved in a boundary box that encompasses it, in a duration of 30 seconds.
FIG. 5. […] The movements of the individual animals were tracked and animals were grouped into cohorts of different activity. This was achieved by determining how much of the animal body moved in a boundary box that encompasses it, in a duration of 30 seconds.
FIG. 6. […] The movements of the individual animals were tracked and animals were grouped into cohorts of different activity. This was achieved by determining how much of the animal body moved in a boundary box that encompasses it, in a duration of 30 seconds.
It is possible to measure the mobility of C. elegans and monitor this throughout the lifespan of the worms. As with many species, C. elegans display an age-related decline in mobility. […] Therefore, we tested whether Compound 1 could improve the mobility of C. elegans throughout their lifespan. To measure locomotory health related parameters the same video recordings that were captured for live/dead scoring were analyzed using the Infinity Code. The movements of the individual animals were tracked and animals were grouped into cohorts of different activity. The cohort analysis involved determining how much of the animal body moved in the boundary box that encompasses it, in a duration of 30 seconds.

[3] = aak-2, 0.5 μM, Pooled Trials 1 to 3
[4] = aak-2, 10 μM, Pooled Trials 1 to 3

C=C(C)[C@@H]1CCC(C)=C[C@H]1c1c(O)cc(CCCCC)c(C(=O)O)c1O [Compound 1, Cannabidiolic acid]
ability to extend lifespan in aak-2 worms ([1]; aak-2, 0.5 μM or 10 μM): completely lost | % lifespan extension [1, 3]: −1.2% | Maximum lifespan [1, 3]: 26 | Mean lifespan [1, 3]: 15.9 ± 4.2 | % lifespan extension ([1]; aak-2, 0.5 μM, Trial 1): 0% | Maximum lifespan ([1]; aak-2, 0.5 μM, Trial 1): 25 | Mean lifespan ([1]; aak-2, 0.5 μM, Trial 1): 16.0 ± 4.2 | % lifespan extension ([1]; aak-2, 0.5 μM, Trial 2): −4.7% | Maximum lifespan ([1]; aak-2, 0.5 μM, Trial 2): 26 | Mean lifespan ([1]; aak-2, 0.5 μM, Trial 2): 16.1 ± 4.0 | % lifespan extension ([1]; aak-2, 0.5 μM, Trial 3): −3.7% | Maximum lifespan ([1]; aak-2, 0.5 μM, Trial 3): 25 | Mean lifespan ([1]; aak-2, 0.5 μM, Trial 3): 15.6 ± 4.4 | % lifespan extension [1, 4]: 0% | Maximum lifespan [1, 4]: 26 | Mean lifespan [1, 4]: 16.1 ± 4.2 | % lifespan extension ([1]; aak-2, 10 μM, Trial 1): −7.5% | Maximum lifespan ([1]; aak-2, 10 μM, Trial 1): 23 | Mean lifespan ([1]; aak-2, 10 μM, Trial 1): 14.9 ± 3.8 | % lifespan extension ([1]; aak-2, 10 μM, Trial 2): −4.1% | Maximum lifespan ([1]; aak-2, 10 μM, Trial 2): 26 | Mean lifespan ([1]; aak-2, 10 μM, Trial 2): 16.2 ± 4.7 | % lifespan extension ([1]; aak-2, 10 μM, Trial 3): 3.8% | Maximum lifespan ([1]; aak-2, 10 μM, Trial 3): 24 | Mean lifespan ([1]; aak-2, 10 μM, Trial 3): 16.8 ± 3.5 | Autophagy (LC3) (Zebrafish larvae; 16 hours, without NH4Cl): dose-dependent increase in autophagy | Autophagy (LC3) (Zebrafish larvae; in the presence of NH4Cl): dose-dependent increase in autophagy | % lifespan extension (wild-type C. elegans; 0.5 μM, Pooled Trials 1 to 3): 1.3% | Maximum lifespan (wild-type C. elegans; 0.5 μM, Pooled Trials 1 to 3): 26 | Mean lifespan (wild-type C. elegans; 0.5 μM, Pooled Trials 1 to 3): 15.3 ± 5.4 | % lifespan extension (wild-type C. elegans; 0.5 μM, Trial 1): 4.4% | Maximum lifespan (wild-type C. elegans; 0.5 μM, Trial 1): 25 | Mean lifespan (wild-type C. elegans; 0.5 μM, Trial 1): 16.6 ± 5.8 | % lifespan extension (wild-type C. elegans; 0.5 μM, Trial 2): 0% | Maximum lifespan (wild-type C. elegans; 0.5 μM, Trial 2): 26 | Mean lifespan (wild-type C. elegans; 0.5 μM, Trial 2): 15.2 ± 5.7 | % lifespan extension (wild-type C. elegans; 0.5 μM, Trial 3): 0% | Maximum lifespan (wild-type C. elegans; 0.5 μM, Trial 3): 26 | Mean lifespan (wild-type C. elegans; 0.5 μM, Trial 3): 15.0 ± 5.4 | Effect on mean and maximum lifespan (wild-type C. elegans; 10 μM): significantly extended mean and maximum lifespan | maximum lifespan extension (wild-type C. elegans; 10 μM): 2 days | mean lifespan extension (wild-type C. elegans; 10 μM): around 11% | % lifespan extension (wild-type C. elegans; 10 μM, Pooled Trials 1 to 3): 11.3% | Maximum lifespan (wild-type C. elegans; 10 μM, Pooled Trials 1 to 3): 27 | Mean lifespan (wild-type C. elegans; 10 μM, Pooled Trials 1 to 3): 16.8 ± 5.6 | % lifespan extension (wild-type C. elegans; 10 μM, Trial 1): 10% | Maximum lifespan (wild-type C. elegans; 10 μM, Trial 1): 27 | Mean lifespan (wild-type C. elegans; 10 μM, Trial 1): 17.5 ± 5.8 | % lifespan extension (wild-type C. elegans; 10 μM, Trial 2): 11.8% | Maximum lifespan (wild-type C. elegans; 10 μM, Trial 2): 27 | Mean lifespan (wild-type C. elegans; 10 μM, Trial 2): 17.1 ± 5.9 | % lifespan extension (wild-type C. elegans; 10 μM, Trial 3): 25% | Maximum lifespan (wild-type C. elegans; 10 μM, Trial 3): 26 | Mean lifespan (wild-type C. elegans; 10 μM, Trial 3): 18.8 ± 6.0 | Solubility [2]: low solubility in water-based solutions | Survival after heat shock (WT C. elegans; 0.5 μM): small improvement in survival | Survival after heat shock (WT C. elegans; concentrations above 0.5 μM): almost a complete prevention of C. elegans death | Effect on percentage of highly active animals (C. elegans; 0.5 μM): increases the percentage of highly active animals at Day 8 only | Effect on moderately active worms (C. elegans; 0.5 μM, days 14 to 20): increases the number of moderately active worms | Effect on proportion of inactive worms (C. elegans; 0.5 μM, days 14 to 20): decreases the proportion of inactive worms | Effect on percentage of highly active animals (C. elegans; 10 μM): increases the percentage of highly active animals at Days 8, 12 and 15 | Effect on proportion of highly active worms (C. elegans; 10 μM, days 14 and 20): increases the proportion of highly active worms | Effect on proportion of inactive worms (C. elegans; 10 μM, days 14 and 20): decreases the proportion of inactive worms | Mean % of Highly Active animals (C. elegans; Day 5, 0.5 μM): 83.7% | Mean % of Highly Active animals (C. elegans; Day 5, 10 μM): 89.3% | Mean % of Highly Active animals (C. elegans; Day 8, 0.5 μM): 75.7% | Mean % of Highly Active animals (C. elegans; Day 8, 10 μM): 78.1% | Mean % of Highly Active animals (C. elegans; Day 12, 0.5 μM): 45.2% | Mean % of Highly Active animals (C. elegans; Day 12, 10 μM): 49.7% | Mean % of Highly Active animals (C. elegans; Day 15, 0.5 μM): 18.3% | Mean % of Highly Active animals (C. elegans; Day 15, 10 μM): 23.7%
